In ChEMBL document CHEMBL6127044, “An insight into G-quadruplexes: Identification and potential therapeutic targets in livestock viruses” (Eur J Med Chem, 2024):

What was measured:
[1] = test system: Porcine epidemic diarrhea virus; experiment: Antiviral activity against Porcine epidemic diarrhea virus infected in African green monkey Vero E6 cells assessed as inhibition of viral replication at 25 uM relative to control; format: functional; details: Vero C1008
Vero = experiment: Cytotoxicity against African green monkey Vero cells at 50 uM incubated for 24 hrs by MTT assay relative to control; format: toxicity, cell-based; details: chlorocebus sabaeus

Structure (SMILES)	inhibition at 25 µM [1] [%]	Activity (Vero) [%]
C[n+]1ccc(-c2c3nc(c(-c4cc[n+](C)cc4)c4ccc([nH]4)c(-c4cc[n+](C)cc4)c4nc(c(-c5cc[n+](C)cc5)c5ccc2[nH]5)C=C4)C=C3)cc1 [TMPYP4 CHLORIDE]	99	
NCCOc1cc(C(=O)Nc2cc(OCCN)c3ccccc3n2)nc(C(=O)Nc2cc(OCCN)c3ccccc3n2)c1 [PYRIDOSTATIN]	99	80
C[n+]1cc(NC(=O)c2ccc3ccc4ccc(C(=O)Nc5cc6ccccc6[n+](C)c5)nc4c3n2)cc2ccccc21		80
